According to PubChem BioAssay (NCI):
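These data come from cells grown in 96-well plates and exposed to compound for 48 hours at five concentrations. GI50 = concentration required for 50% inhibition of growth. TGI is the concentration that stops growth completely.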

Columns and labels:
Assay in all cases: NCI tumour cell line growth inhibition, 48 h
[1] = test system: OVCAR-4 ovarian
[2] = test system: UO-31 renal
[3] = test system: NCI-H23 lung
[4] = test system: HOP-62 NSCLC
[5] = test system: MALME-3M melanoma
[6] = test system: HL-60(TB) leukemia
[7] = test system: PC-3 prostate
[8] = test system: MOLT-4 leukemia
[9] = test system: COLO 205 colon
[10] = test system: SN12C renal
[11] = test system: BT-549 breast
[12] = test system: UACC-257 melanoma
[13] = test system: DU-145 prostate
[14] = test system: OVCAR-8 ovarian
[15] = test system: HCT-15 colon
[16] = test system: EKVX NSCLC
[17] = test system: SF-295 CNS
[18] = test system: NCI-H522 lung
[19] = test system: MDA-MB-231 breast

Compound `N=c1c2c(C(N)=O)cn(C3OC(CO)C(O)C3O)c2ncn1O` (stereo not drawn) has a TGI [1] of 6.81 µM, a TGI [2] greater than 20.6 µM and a TGI [3] of 0.358 µM. For the same compound, the TGI [4] was 0.873 µM, the TGI [5] was 0.477 µM and the GI50 [6] was 0.191 µM. For the same compound, the TGI [6] was 0.659 µM, the TGI [7] was 1.14 µM and the TGI [8] was 0.491 µM. The TGI [9] was 1.23 µM, the TGI [10] was 0.444 µM and the TGI [11] was 4.61 µM. The TGI [12] was 0.901 µM, the TGI [13] was 1.36 µM and the TGI [14] was 0.607 µM. The TGI [15] was 0.388 µM, the TGI [16] was 6.67 µM and the TGI [17] was 1.42 µM. It also gave a TGI [18] greater than 20.4 µM.

For `NC(=O)NNc1nc2ccccc2c(=O)n1NC(=O)C(=O)Nc1ccc(Cl)cc1Cl`, the TGI [1] was greater than 100 µM, the TGI [2] was greater than 100 µM and the TGI [3] was greater than 100 µM. For the same compound, the TGI [4] was greater than 100 µM, the TGI [5] was greater than 100 µM and the TGI [7] was greater than 100 µM. For the same compound, the TGI [8] was greater than 100 µM, the TGI [10] was greater than 100 µM and the TGI [11] was greater than 100 µM. For the same compound, the TGI [12] was greater than 100 µM, the TGI [14] was greater than 100 µM and the TGI [15] was greater than 100 µM. For the same compound, the TGI [16] was greater than 100 µM, the TGI [19] was greater than 100 µM and the TGI [17] was greater than 100 µM. For the same compound, the TGI [18] was greater than 100 µM.

Work on `Cc1csc(=S)n1OC(=O)NC1CCCCC1` yielded a TGI [1] greater than 32.5 µM, a TGI [2] greater than 100 µM and a TGI [3] greater than 47.3 µM. It also gave a TGI [4] greater than 100 µM, a TGI [5] greater than 100 µM and a TGI [6] of 56.5 µM. For the same compound, the TGI [8] was greater than 29.4 µM, the TGI [9] was greater than 40.2 µM and the TGI [10] was greater than 100 µM. For the same compound, the TGI [12] was greater than 100 µM, the TGI [14] was greater than 100 µM and the TGI [15] was greater than 100 µM. For the same compound, the TGI [16] was greater than 100 µM, the TGI [17] was greater than 100 µM and the TGI [18] was greater than 80.9 µM.

With `C=CC/C=C/Cc1csc(C(C)(C)C(O)C/C=C/C(=C)CCNC(=O)OC)n1` (stereo not drawn) the TGI [1] was greater than 100 µM, the TGI [2] was greater than 100 µM and the TGI [3] was greater than 100 µM. The TGI [4] was greater than 100 µM, the TGI [5] was greater than 100 µM and the TGI [6] was greater than 79.4 µM. The TGI [7] was greater than 100 µM, the TGI [8] was greater than 100 µM and the TGI [9] was greater than 100 µM. For the same compound, the TGI [10] was greater than 100 µM, the TGI [11] was greater than 100 µM and the TGI [12] was greater than 100 µM. The TGI [13] was greater than 100 µM, the TGI [14] was greater than 100 µM and the TGI [15] was greater than 100 µM. For the same compound, the TGI [16] was greater than 100 µM, the TGI [17] was greater than 100 µM and the TGI [18] was greater than 100 µM.

In the case of `CCOC(=O)c1c(N2CCCC2)nsc1Nc1ccc(F)cc1`, the TGI [1] is reported as greater than 100 µM, the TGI [2] is reported as 46.8 µM and the TGI [3] is reported as greater than 100 µM. The TGI [4] was greater than 100 µM, the TGI [5] was 57.5 µM and the TGI [6] was 58.8 µM. The TGI [7] was greater than 100 µM, the TGI [8] was 70.1 µM and the TGI [9] was greater than 100 µM. For the same compound, the TGI [10] was greater than 100 µM, the TGI [12] was greater than 100 µM and the TGI [13] was greater than 100 µM. It also gave a TGI [14] greater than 100 µM, a TGI [15] greater than 100 µM and a TGI [16] greater than 100 µM. It also gave a TGI [19] greater than 100 µM, a TGI [17] greater than 100 µM and a TGI [18] greater than 100 µM.

Compound `COC(=O)C(CC12CC3CC(CC(C3)C1)C2)NC(=O)C(N)CC(=O)O` (stereo not drawn) has a TGI [1] greater than 100 µM, a TGI [2] greater than 100 µM and a TGI [3] greater than 100 µM. It also gave a TGI [4] greater than 100 µM, a TGI [7] greater than 100 µM and a TGI [8] greater than 100 µM. For the same compound, the TGI [9] was greater than 100 µM, the TGI [10] was greater than 100 µM and the TGI [11] was greater than 100 µM. The TGI [12] was greater than 100 µM, the TGI [13] was greater than 100 µM and the TGI [14] was greater than 100 µM. The TGI [15] was greater than 100 µM, the TGI [16] was greater than 100 µM and the TGI [17] was greater than 100 µM. For the same compound, the TGI [18] was greater than 100 µM.

Work on `O=C1C(Br)=CC2(C=C1Br)CCNC1=C2C(=O)c2ccccc2C1=O` yielded a TGI [3] of 33.7 µM, a TGI [4] of 30.7 µM and a TGI [5] of 33.8 µM. For the same compound, the TGI [6] was 13.3 µM, the TGI [8] was 22.7 µM and the TGI [9] was 15.9 µM. The TGI [10] was 19.6 µM, the TGI [12] was 53.3 µM and the TGI [14] was 98 µM. The TGI [15] was 30.3 µM, the TGI [16] was 99.1 µM and the TGI [17] was 33.2 µM. The TGI [18] was 14.4 µM.

For `O=C1c2c(ccc3c2CCCC3)CC12Cc1ccc3c(c1C2=O)CCCC3`, the TGI [1] was greater than 100 µM, the TGI [2] was greater than 100 µM and the TGI [3] was greater than 100 µM. For the same compound, the TGI [4] was greater than 100 µM, the TGI [5] was greater than 100 µM and the TGI [6] was greater than 100 µM. It also gave a TGI [7] greater than 100 µM, a TGI [8] greater than 100 µM and a TGI [12] greater than 100 µM. It also gave a TGI [13] greater than 100 µM, a TGI [14] greater than 100 µM and a TGI [15] greater than 100 µM. For the same compound, the TGI [16] was greater than 100 µM, the TGI [19] was greater than 100 µM and the TGI [17] was greater than 100 µM. It also gave a TGI [18] greater than 100 µM.

`CCN(CC)CCCNc1nc(=O)[nH]c(C)c1C(=O)Nc1cccc2cc3ccccc3cc12` gave a TGI [1] greater than 100 µM, a TGI [2] greater than 100 µM and a TGI [3] greater than 100 µM. It also gave a TGI [4] greater than 100 µM, a TGI [5] greater than 100 µM and a TGI [6] greater than 100 µM. The TGI [7] was greater than 100 µM, the TGI [8] was greater than 100 µM and the TGI [9] was greater than 100 µM. The TGI [10] was greater than 100 µM, the TGI [12] was greater than 100 µM and the TGI [13] was greater than 100 µM. The TGI [14] was greater than 100 µM, the TGI [15] was greater than 100 µM and the TGI [16] was greater than 100 µM. The TGI [19] was greater than 100 µM, the TGI [17] was greater than 100 µM and the TGI [18] was greater than 100 µM.

With `CCOC(=O)c1ccc(N=C2C(=S)N(c3ccc(C(=O)OCC)cc3)C(=N)N2/N=C/c2ccccc2)cc1` the TGI [2] was 28.9 µM, the TGI [5] was 49.1 µM and the TGI [7] was 18.4 µM. The TGI [9] was 25 µM, the TGI [10] was 41.3 µM and the TGI [11] was 80.2 µM. It also gave a TGI [13] greater than 100 µM, a TGI [14] greater than 100 µM and a TGI [15] greater than 100 µM. It also gave a TGI [16] greater than 100 µM, a TGI [19] of 32.6 µM and a TGI [17] of 70.4 µM. For the same compound, the TGI [18] was 6.1 µM.

`O=S(=O)(O)c1ccc(O)c2ncc(Cl)cc12` was tested, and the TGI [1] was greater than 100 µM, the TGI [2] was greater than 100 µM and the TGI [3] was greater than 100 µM. The TGI [4] was greater than 100 µM, the TGI [7] was greater than 100 µM and the TGI [8] was greater than 100 µM. For the same compound, the TGI [9] was greater than 100 µM, the TGI [10] was greater than 100 µM and the TGI [11] was greater than 100 µM. It also gave a TGI [12] greater than 100 µM, a TGI [13] greater than 100 µM and a TGI [14] greater than 100 µM. It also gave a TGI [15] greater than 100 µM, a TGI [16] greater than 100 µM and a TGI [19] greater than 100 µM. It also gave a TGI [17] greater than 100 µM.

In the case of `O=C(c1cccc2ccccc12)C1(Br)S(=O)(=O)OCCOS1(=O)=O`, the TGI [1] is reported as greater than 100 µM, the TGI [2] is reported as greater than 100 µM and the TGI [3] is reported as greater than 100 µM. The TGI [4] was greater than 100 µM, the TGI [5] was greater than 100 µM and the TGI [6] was greater than 100 µM. For the same compound, the TGI [8] was greater than 100 µM, the TGI [9] was greater than 100 µM and the TGI [10] was greater than 100 µM. For the same compound, the TGI [11] was greater than 100 µM, the TGI [12] was greater than 100 µM and the TGI [13] was greater than 100 µM. For the same compound, the TGI [14] was greater than 100 µM, the TGI [15] was greater than 100 µM and the TGI [16] was greater than 100 µM. For the same compound, the TGI [19] was greater than 100 µM and the TGI [17] was greater than 100 µM.

Work on `CCOC(=O)c1c(N)sc2c1C(C(=O)OCC)CC2` (stereo not drawn) yielded a TGI [2] greater than 100 µM, a TGI [3] greater than 100 µM and a TGI [4] greater than 100 µM. It also gave a TGI [5] greater than 100 µM, a TGI [6] greater than 100 µM and a TGI [7] greater than 100 µM. The TGI [8] was greater than 100 µM, the TGI [9] was greater than 100 µM and the TGI [10] was greater than 100 µM. For the same compound, the TGI [11] was greater than 100 µM, the TGI [12] was greater than 100 µM and the TGI [14] was greater than 100 µM. It also gave a TGI [15] greater than 100 µM, a TGI [16] greater than 100 µM and a TGI [19] greater than 100 µM.

For `c1ccc([P+](Cc2ccc(C[P+](c3ccccc3)(c3ccccc3)c3ccccc3)cc2)(c2ccccc2)c2ccccc2)cc1`, the TGI [1] was greater than 100 µM, the TGI [2] was greater than 100 µM and the TGI [3] was greater than 100 µM. For the same compound, the TGI [4] was greater than 100 µM, the TGI [5] was greater than 100 µM and the TGI [6] was greater than 100 µM. It also gave a TGI [7] greater than 100 µM, a TGI [8] greater than 100 µM and a TGI [9] greater than 100 µM. It also gave a TGI [10] greater than 100 µM, a TGI [12] greater than 100 µM and a TGI [13] greater than 100 µM. It also gave a TGI [14] greater than 100 µM, a TGI [15] greater than 100 µM and a TGI [16] greater than 100 µM. For the same compound, the TGI [19] was greater than 100 µM, the TGI [17] was greater than 100 µM and the TGI [18] was greater than 100 µM.
